These are literature values, as cited in US11197931B2, “Liquid injectable copolymer” (Queen's University at Kingston, priority 2017, dated 2021).

The conditions of this data set: 25° C.

In the case of `C[C@]12C=CC(=O)C=C1CC[C@H]1[C@@H]3C[C@@H](O)[C@](O)(C(=O)CO)[C@@]3(C)C[C@H](O)[C@@]12F` [triamcinolone], the saturation concentration is on record as 80 mg/L.
